Measured values: ChEMBL document CHEMBL1126534, “Role of sulfonamide moiety in non-prostanoid txa2 receptor antagonist kt2-962 : modifications of this moiety and the resulting activities” (Bioorg Med Chem Lett, 1993)

Key:
Oryctolagus cuniculus = species on record: Oryctolagus cuniculus; assay: Tested for 50% maximal aggregation of rabbit platelet-rich plasma induced by 4 x 10 e-6 M U-46619; type: functional
Thromboxane A2 receptor [1] = molecular target: T1, Thromboxane A2 receptor (Rattus norvegicus, UniProt P34978); assay: Tested for antagonistic activity on isolated rat thoracic aorta (thromboxane A2 receptor) precontracted by U-46619 (3 x 10 e-8 M); type: functional, tissue-based
T1 sequence (P34978 whole entry): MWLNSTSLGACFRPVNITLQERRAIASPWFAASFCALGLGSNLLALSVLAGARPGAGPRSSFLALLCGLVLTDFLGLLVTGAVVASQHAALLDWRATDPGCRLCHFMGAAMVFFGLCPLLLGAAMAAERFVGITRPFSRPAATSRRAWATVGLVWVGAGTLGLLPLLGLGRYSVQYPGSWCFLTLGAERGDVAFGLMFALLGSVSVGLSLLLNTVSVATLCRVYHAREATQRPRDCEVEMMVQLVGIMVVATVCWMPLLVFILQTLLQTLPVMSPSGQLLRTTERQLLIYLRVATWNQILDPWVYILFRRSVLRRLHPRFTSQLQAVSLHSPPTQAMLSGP

Thromboxane A2 receptor [2] = molecular target: T1, Thromboxane A2 receptor; assay: Tested for antagonistic activity on isolated rat thoracic aorta (TXA2 receptor) precontracted by U-46619 (3 x 10 e-8 M); type: functional, tissue-based

| SMILES | IC50 (Oryctolagus cuniculus) | IC50 (Thromboxane A2 receptor [1]) | IC50 (Thromboxane A2 receptor [2]) |
| --- | --- | --- | --- |
| CC(C)c1ccc2c(CCC/C=N\NC(=O)Nc3ccccc3)cc(C(=O)O)c-2cc1 | > 1000 µM | > 100 µM |  |
| O=C(O)COc1ccc(CCNS(=O)(=O)c2ccccc2)cc1 [SULOTROBAN] |  | 1.5 µM |  |
| CC(C)c1ccc2c(CCCS(=O)(=O)Nc3ccc(Cl)cc3)cc(S(=O)(=O)O)c-2cc1 |  | 0.86 µM |  |
| CC(C)c1ccc2c(CCCS(=O)(=O)Nc3ccc(Cl)cc3)cc(C(=O)O)c-2cc1 |  | 9.1 µM |  |
| CC(C)c1ccc2c(CCCC(=O)NS(=O)(=O)c3ccc(Cl)cc3)cc(S(=O)(=O)O)c-2cc1 | 56 µM | 54 µM |  |
| CC(C)c1ccc2c(CNC(=O)CNC(=O)c3ccc(Cl)cc3)cc(C(=O)O)c-2cc1 |  | > 100 µM |  |
| CC(C)c1ccc2c(CCCC(=O)NS(=O)(=O)c3ccccc3)cc(C(=O)O)c-2cc1 |  | > 100 µM |  |
| CC(C)c1ccc2c(CCC/C=N/NC(=O)Nc3ccc(Cl)cc3)cc(C(=O)O)c-2cc1 |  | > 100 µM |  |
| CC(C)c1ccc2c(CCCCS(=O)(=O)Nc3ccccc3)cc(C(=O)O)c-2cc1 |  | 8.7 µM |  |
| CC(C)c1ccc2c(CCCCS(=O)(=O)Nc3ccc(Cl)cc3)cc(S(=O)(=O)O)c-2cc1 | > 1000 µM | 0.22 µM |  |
| CC(C)c1ccc2c(CCCCCS(=O)(=O)Nc3ccccc3)cc(S(=O)(=O)O)c-2cc1 |  | 1.4 µM |  |
| CC(C)c1ccc2c(CCCCCS(=O)(=O)Nc3ccccc3)cc(C(=O)O)c-2cc1 |  | 1.5 µM |  |
| CC(C)c1ccc2c(CCCC(=O)NS(=O)(=O)c3ccccc3)cc(S(=O)(=O)O)c-2cc1 |  | 65 µM |  |
| CC(C)c1ccc2c(CCCCCS(=O)(=O)Nc3ccc(Cl)cc3)cc(C(=O)O)c-2cc1 |  | 1.7 µM |  |
| CC(C)c1ccc2c(CCCCS(=O)(=O)Nc3ccccc3)cc(S(=O)(=O)O)c-2cc1 |  | 1.5 µM |  |
| CC(C)c1ccc2c(CCCCCS(=O)(=O)Nc3ccc(Cl)cc3)cc(S(=O)(=O)O)c-2cc1 |  | 0.86 µM |  |
| CC(C)c1ccc2c(CCCCS(=O)(=O)Nc3ccc(Cl)cc3)cc(C(=O)O)c-2cc1 | > 1000 µM | 2.6 µM |  |
| CC(C)c1ccc2c(CNC(=O)CNS(=O)(=O)c3ccc(Cl)cc3)cc(C(=O)O)c-2cc1 |  | > 100 µM |  |
| CC(C)c1ccc2c(CCCC(=O)NS(=O)(=O)c3ccc(Cl)cc3)cc(C(=O)O)c-2cc1 | > 1000 µM | 19 µM |  |
| CC(C)c1ccc2c(CCC/C=N/N=C(\S)Nc3ccc(Cl)cc3)cc(C(=O)O)c-2cc1 |  | > 100 µM |  |
| CC(C)c1ccc2c(CNC(=O)CNC(=O)c3ccccc3)cc(C(=O)O)c-2cc1 | > 1000 µM |  | > 100 µM |
| CC(C)c1ccc2c(CCC/C=N/N=C(\S)Nc3ccccc3)cc(C(=O)O)c-2cc1 | > 1000 µM | 590 µM |  |
| CC(C)c1ccc2c(CCCS(=O)(=O)Nc3ccccc3)cc(S(=O)(=O)O)c-2cc1 |  | 8.7 µM |  |
| CC(C)c1ccc2c(CNC(=O)CNS(=O)(=O)c3ccccc3)cc(C(=O)O)c-2cc1 | > 1000 µM | > 100 µM |  |
| CC(C)c1ccc2c(CCCS(=O)(=O)Nc3ccccc3)cc(C(=O)O)c-2cc1 |  | 12 µM |  |
| CC(C)c1ccc2c(CCCCNS(=O)(=O)c3ccc(Cl)cc3)cc(S(=O)(=O)O)c-2cc1 |  | 0.0009 µM |  |
